Measurements published in ChEMBL document CHEMBL1152784, “Discovery of 4-substituted methoxybenzoyl-aryl-thiazole as novel anticancer agents: synthesis, biological evaluation, and structure-activity relationships” (J Med Chem, 2009).

What was measured:
[1] = tested on: PPC-1; assay: Cytotoxicity against human PPC1 cells after 96 hrs by SRB assay
[2] = tested on: A-375; assay: Cytotoxicity against human A375 cells after 48 hrs by SRB assay; type: functional, cell-based; conditions: A-375, 48 h
[3] = tested on: LNCaP; assay: Cytotoxicity against human LNCAP cells after 96 hrs by SRB assay
[4] = tested on: DU-145; assay: Cytotoxicity against human DU145 cells after 96 hrs by SRB assay; conditions: DU-145, 96 h
[5] = tested on: PC-3; assay: Cytotoxicity against human PC3 cells after 96 hrs by SRB assay; conditions: PC-3, 96 h
[6] = Cytotoxicity against mouse B16-F1 cells after 48 hrs by SRB assay; type: functional, cell-based; conditions: B16-F1, 48 h
[7] = organism: Bos taurus; assay: Inhibition of bovine brain tubulin assessed as blockade of microtubule polymerization
[8] = tested on: DU-145; assay: Cytotoxicity against human DU145 cells after 48 hrs by SRB assay; type: functional, cell-based; conditions: DU-145, 48 h

Compound	IC50 ([1]; Homo sapiens, PPC-1, 96 h)	IC50 [2]	IC50 ([3]; Homo sapiens, LNCaP, 96 h)	IC50 [4]	IC50 [5]	IC50 [6]	Activity [7]	IC50 [8]	IC50 ([1]; ppc-1)	IC50 ([3]; lncap)
O=C(c1cc(O)c(O)c(O)c1)c1csc(-c2ccccc2)n1	> 20000 nM	> 100000 nM	> 20000 nM	> 20000 nM	> 20000 nM	> 100000 nM	–	–	–	–
CCCCCCCCCCCCCCCCC(=O)c1csc(-c2ccccc2)n1	> 20000 nM	16000 nM	> 20000 nM	> 20000 nM	> 20000 nM	18600 nM	–	–	–	–
COc1cc(NC(=O)[C@@H]2CSC(c3ccccc3)=N2)cc(OC)c1OC	5300 nM	22800 nM	> 20000 nM	> 20000 nM	> 20000 nM	38300 nM	–	–	–	–
COc1cc(C(=O)c2csc(-c3ccc(C#N)cc3)n2)cc(OC)c1OC	19 nM	59 nM	15 nM	52 nM	30 nM	–	–	–	–	–
COc1cc(NC(=O)c2csc(-c3ccccc3)n2)cc(OC)c1OC	> 20000 nM	> 100000 nM	> 20000 nM	> 20000 nM	> 20000 nM	> 100000 nM	–	–	–	–
COc1cc(C(=O)c2csc(-c3cccc(F)c3)n2)cc(OC)c1OC	21 nM	304 nM	11 nM	35 nM	24 nM	287 nM	–	–	–	–
COc1cc(C(=O)c2csc(-c3ccc(C)cc3)n2)cc(OC)c1OC	6 nM	11 nM	–	7 nM	5 nM	21 nM	–	–	–	–
COc1cc(C(=O)c2csc(-c3ccccc3)n2)cc(OC)c1OC	43 nM	28 nM	28 nM	71 nM	21 nM	55 nM	Dose-dependent effect	–	–	–
O=C(c1ccccc1)c1csc(-c2ccccc2)n1	> 20000 nM	> 100000 nM	> 20000 nM	> 20000 nM	> 20000 nM	> 100000 nM	–	–	–	–
COc1ccc(-c2nc(C(=O)c3cc(OC)c(OC)c(OC)c3)cs2)cc1OC	56 nM	34 nM	38 nM	–	69 nM	161 nM	–	102000 nM	–	–
COc1cc(C(=O)c2csc(-c3ccncc3)n2)cc(OC)c1OC [listing 1 of 2 here]	–	–	–	–	–	–	–	–	18000 nM	16600 nM
COc1cc(C(=O)c2csc(-c3ccc(N)cc3)n2)cc(OC)c1OC	15 nM	11 nM	13 nM	20 nM	12 nM	29 nM	–	–	–	–
CCCCCCCCCCCCCCCCNC(=O)[C@@H]1CSC(c2ccc(NC(C)=O)cc2)N1 (mixture of isomers)	400 nM	2100 nM	1000 nM	1700 nM	–	2200 nM	–	–	–	–
COc1cc(C(=O)c2csc(-c3ccccc3F)n2)cc(OC)c1OC	52 nM	30 nM	53 nM	114 nM	82 nM	27 nM	–	–	–	–
CC(=O)Nc1ccc(C2N[C@H](C(=O)Nc3ccc4c(c3)Cc3ccccc3-4)CS2)cc1 (mixture of isomers)	1600 nM	–	3500 nM	1900 nM	2100 nM	–	–	–	–	–
COc1cc(C(=O)c2csc(-c3ccc([N+](=O)[O-])cc3)n2)cc(OC)c1OC	34 nM	–	39 nM	95 nM	56 nM	–	–	–	–	–
O=C(c1ccccn1)c1csc(-c2ccccc2)n1	> 20000 nM	> 100000 nM	> 20000 nM	> 20000 nM	> 20000 nM	> 100000 nM	–	–	–	–
COc1cc(C(=O)c2cscn2)cc(OC)c1OC	> 20000 nM	> 100000 nM	> 20000 nM	> 20000 nM	> 20000 nM	> 100000 nM	–	–	–	–

Compound	IC50 ([1]; Homo sapiens, PPC-1, 96 h)	IC50 [2]	IC50 ([3]; Homo sapiens, LNCaP, 96 h)	IC50 [4]	IC50 [5]	IC50 [6]	Activity [7]	IC50 [8]	IC50 ([1]; ppc-1)	IC50 ([3]; lncap)
COc1cc(C(=O)c2csc(-c3ccncc3)n2)cc(OC)c1OC [listing 2 of 2 here]	> 20000 nM	> 100000 nM	> 20000 nM	> 20000 nM	> 20000 nM	> 100000 nM	–	–	–	–
COc1ccc(C(=O)c2csc(-c3ccccc3)n2)cc1OC	> 20000 nM	> 100000 nM	> 20000 nM	> 20000 nM	> 20000 nM	> 100000 nM	–	–	–	–
COc1cc(C(=O)c2csc(-c3ncccn3)n2)cc(OC)c1OC	1190 nM	4100 nM	2370 nM	2810 nM	2660 nM	–	–	–	–	–
COc1ccc(C(=O)c2csc(-c3ccccc3)n2)cc1	> 20000 nM	> 100000 nM	> 20000 nM	> 20000 nM	> 20000 nM	> 100000 nM	–	–	–	–
COc1cc(NC(=O)[C@H]2CSC(c3ccccc3)=N2)cc(OC)c1OC	3400 nM	–	16800 nM	> 20000 nM	13200 nM	30400 nM	–	–	–	–
COc1cccc(C(=O)c2csc(-c3ccccc3)n2)c1	> 20000 nM	> 100000 nM	> 20000 nM	> 20000 nM	> 20000 nM	> 100000 nM	–	–	–	–
COC(=O)c1ccc(-c2nc(C(=O)c3cc(OC)c(OC)c(OC)c3)cs2)cc1	> 20000 nM	> 100000 nM	> 20000 nM	> 20000 nM	> 20000 nM	> 100000 nM	–	–	–	–
COc1cc(C(=O)c2csc(-c3ccc(C(=O)O)cc3)n2)cc(OC)c1OC	> 20000 nM	> 100000 nM	> 20000 nM	> 20000 nM	> 20000 nM	> 100000 nM	–	–	–	–
O=C(c1csc(-c2ccccc2)n1)c1ccccc1F	> 20000 nM	> 100000 nM	> 20000 nM	> 20000 nM	> 20000 nM	> 100000 nM	–	–	–	–
COc1cc(C(=O)c2csc(-c3cccs3)n2)cc(OC)c1OC	13 nM	20 nM	9 nM	22 nM	–	38 nM	–	–	–	–
COc1cc(OC)cc(C(=O)c2csc(-c3ccccc3)n2)c1	242 nM	170 nM	323 nM	424 nM	301 nM	350 nM	–	–	–	–
CCc1ccc(-c2nc(C(=O)c3cc(OC)c(OC)c(OC)c3)cs2)cc1	22 nM	–	60 nM	31 nM	27 nM	70 nM	–	–	–	–
COc1cc(NC(=O)[C@@H]2CSC(c3ccccc3)N2)cc(OC)c1OC (mixture of isomers)	> 20000 nM	> 100000 nM	> 20000 nM	> 20000 nM	> 20000 nM	> 100000 nM	–	–	–	–
COc1cc(NC(=O)[C@@H]2CSC(c3cc(OC)c(OC)c(OC)c3)N2)cc(OC)c1OC (mixture of isomers)	> 20000 nM	> 100000 nM	> 20000 nM	> 20000 nM	> 20000 nM	> 100000 nM	–	–	–	–
COc1ccccc1C(=O)c1csc(-c2ccccc2)n1	> 20000 nM	70300 nM	> 20000 nM	> 20000 nM	> 20000 nM	59400 nM	–	–	–	–
COc1cc(C(=O)c2csc(-c3ccc(C(F)(F)F)cc3)n2)cc(OC)c1OC	76 nM	23 nM	94 nM	50 nM	58 nM	–	–	–	–	–
COc1cc(C(=O)c2csc(-c3ccc(F)cc3)n2)cc(OC)c1OC	–	33 nM	6 nM	–	13 nM	43 nM	–	–	–	–
COc1cc(C(=O)c2csc(-c3ccc(Br)cc3)n2)cc(OC)c1OC	21 nM	13 nM	44 nM	21 nM	18 nM	32 nM	–	–	–	–
